Tested on: mesenteric lymph nodes (MLN) cells
Test: Lymphocyte proliferation (thymidine incorporation) in response to colonic extract, cells from colitis-induced mice
Type: cell-based
Method: FIGS. 4A-4F show the effect of GA on the lymphocyte proliferation in different mouse strains. The responses of normal mice, colitis-induced mice, and colitis-induced mice treated with GA orally or parenterally daily are compared in the BALB/c (FIGS. 4A, 4B), (SJL/JxBALB/c)F1 (FIGS. 4C, 4D), and SJL/J (FIGS. 4E, 4F) strains. Cells from spleens (FIGS. 4A, 4C, 4E) and mesenteric lymph nodes (MLN) (FIGS. 4B, 4D, 4F) were cultured, 7 days after disease induction, with no antigen, colonic extract (CE, 200 μg/ml), or GA (50 μg/ml). Results of thymidine incorporation are expressed as mean cpm±ISD of six culture wells and represent one of two similar experiments, using pooled cells from 3-5 mice in each group. # Indicates significant increase in the response to CE by colitic mice. * Indicates significant decrease in the response to CE induced by GA treatment.
Colon extract. Colons of syngeneic normal mice were cut into small strips and homogenized. The homogenate was diluted in PBS and passed through glass wool. Protein quantity was measured by using a protein assay kit (Bio-Rad, Richmond, Calif.).
Reactivity assays. Spleens and mesenteric lymph nodes (MLN) cells (0.5×10^6 cell/well) were cultured with either GA (50 μg/ml), colon extract (200 μg/ml), immobilized anti-CD3 (5 μg/ml), or PBS control, in a final volume of 250 μl/well (6 wells for each antigen). For proliferation assay, cells were cultured in RPMI 1640 with 10% FCS, pulsed with 1 μCi of [3H] thymidine after 48 h incubation, and harvested 12 h later. For cytokine (TNF-α and TGF-β) assay, cells were cultured in serum-free medium (DCCM-1), supernatants were collected after 72 h, and tested for the cytokines by ELISA using mAbs pairs (R&D Systems, Minneapollis, Minn.) according to the manufacturer's instruction.

## glatiramer acetate [GA]
MLN from (SJL/JxBALB/c)F1 mice treated either orally or parenterally with GA
  Inhibition of the MLN proliferation response to colonic extract by GA treatment: complete inhibition
MLN from BALB/c, colonic extract 200 μg/ml, 7 days after disease induction
  Inhibition of the local MLN proliferation response to colonic extract by GA treatment: 66%
MLN from SJL/J mice treated either orally or parenterally with GA
  Inhibition of the MLN proliferation response to colonic extract by GA treatment: complete inhibition
